Results on one compound are retold here after US12552744B2, “Method for producing monosulfoxide derivative” (KUMIAI CHEMICAL INDUSTRY CO., LTD., priority 2020, dated 2026).

A short description of this data set: Solubility of the compound in solvents. The format is physicochemical. The following applies: at 5° C.

Consider `[O-][S+](CC(F)(F)F)c1cc(OCCCCCSC(F)(F)F)c(F)cc1Cl` (stereo not shown) [B-a, 5-trifluoromethylthiopentyl-[4-chloro-2-fluoro-5-(2,2,2-trifluoroethylsulfinyl)phenyl]ether], for which the “solubility in a mixed solution of 70 wt. % t-butanol/water” value was “about 2 wt. %”.
